#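 Protocol summary: plate cells (96-well), add compound at 5 concentrations, incubate 48 h, interpolate endpoints linearly. Here, GI50 denotes the concentration required for 50% inhibition of growth.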 Active and inactive are the calls of the source. Cut-off read from the data, not from the text of the source: active = GI50 up to about 1.1 µM and inactive = higher.
# Key:
# Test in all cases: NCI anticancer screen, dose series, 48 h
# HOP-62 = test system: HOP-62
# SF-539 = test system: SF-539
# LOX IMVI = test system: LOX IMVI
# TK-10 = test system: TK-10
# UACC-62 = test system: UACC-62
# HCT-15 = test system: HCT-15
# NCI-H522 = test system: NCI-H522
# HOP-92 = test system: HOP-92
# Malme-3M = test system: Malme-3M
# K562 = test system: K562
# MOLT-4 = test system: MOLT-4
# A549 = test system: A549
# OVCAR-5 = test system: OVCAR-5
# MDA-N = test system: MDA-N
# OVCAR-8 = test system: OVCAR-8
# COLO 205 = test system: COLO 205
# KM12 = test system: KM12
# NCI-H226 = test system: NCI-H226
# OVCAR-4 = test system: OVCAR-4
# HCC 2998 = test system: HCC 2998
Structure (SMILES),GI50 (HOP-62),GI50 (SF-539),GI50 (LOX IMVI),GI50 (TK-10),GI50 (UACC-62),GI50 (HCT-15),GI50 (NCI-H522),GI50 (HOP-92),GI50 (Malme-3M),GI50 (K562),GI50 (MOLT-4),GI50 (A549),GI50 (OVCAR-5),GI50 (MDA-N),GI50 (OVCAR-8),GI50 (COLO 205),GI50 (KM12),GI50 (NCI-H226),GI50 (OVCAR-4),GI50 (HCC 2998)
CCn1c2ccccc2c2ccc(C3C4C(=O)N(c5cccc6ccccc56)C(=O)C4ON3C(C(N)=O)c3ccccc3)cc21 (centres undefined),> 25 µM (inactive),7.59 µM (inactive),13.2 µM (inactive),7.16 µM (inactive),9.04 µM (inactive),13.3 µM,> 25 µM (inactive),> 25 µM (inactive),> 25 µM (inactive),14.8 µM (inactive),7.53 µM (inactive),> 25 µM (inactive),15.1 µM (inactive),9.1 µM (inactive),> 25 µM (inactive),10.1 µM (inactive),9.95 µM (inactive),2.76 µM (inactive),14.6 µM (inactive),
COC(OC)C(O)C1OC=CC1n1cnc2c(N)ncnc21 (centres undefined),> 100 µM (inactive),> 100 µM (inactive),> 100 µM (inactive),> 100 µM (inactive),> 100 µM (inactive),> 100 µM,,> 100 µM (inactive),,> 100 µM (inactive),> 100 µM (inactive),,,> 100 µM (inactive),,> 100 µM (inactive),> 100 µM (inactive),> 100 µM (inactive),> 100 µM (inactive),> 100 µM (inactive)
O=C(O)c1nc2ccc(C(F)(F)F)cc2nc1NCc1ccc(Cl)c(Cl)c1,14.8 µM (inactive),19.5 µM (inactive),15.1 µM (inactive),,17.1 µM (inactive),18 µM,,15.7 µM (inactive),,16.9 µM (inactive),12.3 µM (inactive),16.1 µM (inactive),13.5 µM (inactive),19.6 µM (inactive),16.3 µM (inactive),20.1 µM (inactive),16.3 µM (inactive),17.3 µM (inactive),18.5 µM (inactive),16.4 µM (inactive)
COc1cc(-c2ccccc2N)c2cccnc2c1OC,5.26 µM (inactive),6.41 µM (inactive),3.4 µM (inactive),10.1 µM (inactive),11.7 µM (inactive),3.58 µM,3.59 µM (inactive),9.53 µM (inactive),14.9 µM (inactive),4.78 µM (inactive),1.44 µM (inactive),3.69 µM (inactive),,6.47 µM (inactive),,6.38 µM (inactive),6.07 µM (inactive),11.6 µM (inactive),6.3 µM (inactive),
O=C(CSc1nc2ccc(I)cc2c(=O)n1Cc1ccccc1)Nc1ccccc1,5.7 µM (inactive),3.08 µM (inactive),50.7 µM (inactive),,46.6 µM (inactive),41.5 µM,16 µM (inactive),19.3 µM (inactive),6.15 µM (inactive),39.5 µM (inactive),> 100 µM (inactive),26.6 µM (inactive),30.6 µM (inactive),> 100 µM (inactive),6.75 µM (inactive),> 100 µM (inactive),94.4 µM (inactive),11.9 µM (inactive),14.3 µM (inactive),
CC(C)CC(N)C(=O)O (centres undefined),> 100 µM (inactive),> 100 µM (inactive),> 100 µM (inactive),> 100 µM (inactive),> 100 µM (inactive),> 100 µM,> 100 µM (inactive),> 100 µM (inactive),> 100 µM (inactive),> 100 µM (inactive),> 100 µM (inactive),> 100 µM (inactive),,> 100 µM (inactive),> 100 µM (inactive),> 100 µM (inactive),> 100 µM (inactive),> 100 µM (inactive),> 100 µM (inactive),

# Source: ChEMBL document CHEMBL1201862, “PubChem BioAssay data set” (2004)
